Structures can show the parent of a compound that is named as a salt.

This note sets out measurements from US8008345B2, “Dermal therapy using phosphate derivatives of electron transfer agents” (Vital Health Sciences Pty. Ltd., priority 2001, dated 2011).

Data set [1] relates to insect bite. Put plainly: Case: insect bite with blistering and inflammation (Example 9). Particulars: oral anti-histamine plus topical corticosteroid cream together, first day. In kind it is in vivo, human. The text has this:
In this example, a method of the invention is used to treat erythema and inflammation symptoms associated with an insect bite.

Data set [2] deals with facial skin. Also noted: species or system human. Particulars: in vivo. On the procedure:
Qualified subjects returned to the clinic for Visit 2 (baseline). Subjects participated in the following clinical grading and instrumentation procedures: • Objective irritation (erythema, edema, scaling/skin dryness, rash) and subjective irritation (burning, itching, stinging, tingling, tightness) were assessed globally on the face. Results were recorded using the following scale: 0=none, 1=mild, 2=moderate, and 3=severe. • The following efficacy (aging) parameters were graded at the specified locations using a analog scale (extremes of the scale are listed in parentheses).
Subjects were assigned to use test material Product A (cream from Example 4) or Product B (Vehicle control: emulsion system) according to a predetermined randomization. […]
Mean scores for clinical grading parameters and pinch recoil measurements at Week 4 and Week 8 were statistically compared to baseline using a paired t-test at the p≦0.05 significance level. Mean percent change from baseline was calculated for all attributes. […] For self-assessment questionnaire responses at Week 4 and Week 8, mean response values and standard deviations were calculated for each question.
Irritation parameters were graded according to a four-point scale where 0=None, 1=Mild, 2=Moderate, and 3=Severe. Efficacy parameters were assessed according to an analog scale where 0 represents positive scores and 10 represents negative scores.

Data set [3] relates to photodamaged skin (face). Nature of the data set: Eight-week pilot study on photodamaged skin: clinical grading of efficacy (aging) parameters. It is filed as in vivo, human. The settings on record: pilot study outcome, stated for the active. On the procedure:
An eight-week double blind vehicle controlled pilot study was conducted to evaluate the effects of a topical treatment comprising tocopheryl phosphate complexes on improving the appearance of photodamaged skin. Ten female subjects completed the pilot study.
At Visit 1 (screening), prospective subjects completed a health and eligibility questionnaire, and signed a photography release form and an informed consent agreement. Subjects were examined for study eligibility criteria according to the following classifications: […]
Qualified subjects returned to the clinic for Visit 2 (baseline). Subjects participated in the following clinical grading and instrumentation procedures: • Objective irritation (erythema, edema, scaling/skin dryness, rash) and subjective irritation (burning, itching, stinging, tingling, tightness) were assessed globally on the face. Results were recorded using the following scale: 0=none, 1=mild, 2=moderate, and 3=severe. • The following efficacy (aging) parameters were graded at the specified locations using a analog scale (extremes of the scale are listed in parentheses). […]
Mean scores for clinical grading parameters and pinch recoil measurements at Week 4 and Week 8 were statistically compared to baseline using a paired t-test at the p≦0.05 significance level. Mean percent change from baseline was calculated for all attributes. […]

With `CC(C)(C(=O)O)c1ccc(C(O)CCCN2CCC(C(O)(c3ccccc3)c3ccccc3)CC2)cc1` (stereo not drawn) [fexofenadine hydrochloride], the improvement of bite result in data set [1] is given as “little improvement”.
Turning to “Lauryliminodipropionic Acid Tocopheryl Phosphate”, the “objective or subjective skin irritation responses in users” value in data set [2] is “did not produce objective or subjective skin irritation responses”. The “appearance of fine lines, wrinkles and skin elasticity in photodamaged skin” value in data set [3] is “improved the appearance of fine lines, wrinkles and skin elasticity”.
